One assay relates to E. coli MS 200-1. The assay is described as follows: Growth inhibition of E. coli cultures in choline- and glycerol-containing minimal media. The following applies: for Effect on growth of E. coli MS 200-1 in glycerol medium: glycerol NCE minimal medium. The format is cell-based, Escherichia coli MS 200-1. As to the method:
To validate the potential hits from the HTS, we tested the 178 compounds for inhibition of growth of E. coli MS 200-1 in glycerol minimal media at 30 µg/mL, following up with those without activity. […]. We then determined EC50 values for inhibition of TMA production from choline by bacterial cultures incubated with [trimethyl-d9]choline in phosphate-buffered saline. Of the 178 compounds tested in both growth and TMA inhibition assays, 20 inhibited TMA generation by E. coli MS 200-1 without growth-inhibitory effects in glycerol minimal medium.
NCE media was adapted based on the “no carbon E” media as previously described ([14]), and contains 29 mM potassium phosphate monobasic, 29 mM potassium phosphate dibasic, 17 mM ammonium sodium phosphate dibasic, 40 mM sodium fumarate dibasic, 0.1% (wt/vol) casamino acids, and either 20 mM choline chloride or 3 g/L glycerol. This mixture was supplemented with 1 mM magnesium sulfate, 1% ATCC vitamin supplement, and 1% ATCC trace mineral supplement.

The subject of assay [1] is choline-metabolizing gut bacteria (E. coli, P. mirabilis, C. sporogenes, A. hydrogenalis). Put plainly: TMA inhibition across the panel of four choline-metabolizing gut bacteria. The assay is classed as cell-based. The following applies: for EC50: read-out: EC50 values for TMA inhibition across the choline-metabolizing bacteria. The source says: We then used secondary assays to prioritize scaffolds that had broad-spectrum TMA inhibitory activity against additional choline-metabolizing gut bacteria. For this, we used Clostridium sporogenes ATCC 15579, a human gut isolate that is able to efficiently ferment choline in addition to other carbon sources, as well as Anaerococcus hydrogenalis DSM 7454 and Proteus mirabilis ATCC 29906, human gut isolates previously identified to metabolize choline in vitro ([61]). In particular, E. coli MS 200-1 and C. sporogenes ATCC 15579 have been used in gnotobiotic studies to investigate the effects of bacterial choline metabolism on the host and microbiome ([46], [61], [62]). These strains are representative of taxa frequently detected in humans ([63]) and, together with E. coli, are representative of the major phyla and genera in which TMA producers have been detected across human gut isolates ([48]). Importantly, this group of strains included both gram-positive and gram-negative bacteria. Gram-negative bacteria have an additional outer membrane layer and associated efflux pumps ([29]), which typically decreases small molecule permeability compared to gram-positive bacteria. It also included bacteria with cut gene cluster architectures that differ in the number and types of microcompartment proteins encoded and in the size of the CutC enzyme ([48]). We hypothesized that testing the inhibitors against multiple choline-utilizing gut bacteria would increase the likelihood of identifying compounds with broad-spectrum activity.
Compounds were stored as 10 mM DMSO stocks at –20°C and diluted in DMSO to prepare varying concentrations of inhibitors for testing. Bacteria were grown anaerobically overnight in media supplemented with choline as described above. Cells were pelleted and resuspended in PBS, and d9-choline chloride was added to a final concentration of 1 mM. The final OD600 of the PBS cell resuspensions is as follows: 0.4 (E. coli), 0.15–0.2 (P. mirabilis), 0.2 (C. sporogenes), and 0.4 (A. hydrogenalis). The resuspended cells were added to 96-well plates containing inhibitors (final concentration of 1% DMSO, with final inhibitor concentrations ranging between 0 and 325 µM). The plates were sealed and incubated for 75 min (or 90 min for P. mirabilis) at 37°C. Following incubation, the plates were removed from the anaerobic chamber and analyzed immediately or kept at –20°C until LC–MS/MS analysis. Each inhibitor concentration was tested in triplicate. EC50 values were calculated with GraphPad Prism by fitting the log(inhibitor) vs response—Variable slope (four-parameter) model for non-linear regression.

In assay [2] the test system is Anaerococcus hydrogenalis DSM 7454. Put plainly: MIC in MEGA medium. The format is cell-based. The following applies: Anaerococcus hydrogenalis, DSM7454; anaerobic, 37°C, 24 h, up to 200 µM. The protocol: (§1) For TMA inhibition assays, E. coli and P. mirabilis were grown in NCE medium supplemented with 20 mM choline chloride, A. hydrogenalis was grown in MEGA medium supplemented with 3 mM choline chloride, and C. sporogenes was grown in BHI medium supplemented with 20 mM of choline chloride to induce expression of the cut gene cluster. For MIC assays, all bacteria strains were grown in MEGA medium.

The test system of assay [3] is Clostridium sporogenes ATCC 15579. The assay is described as follows: MIC in MEGA medium. The format is cell-based. The following applies: Clostridium sporogenes, ATCC15579; anaerobic, 37°C, 24 h, up to 200 µM. As to the method: as §1
In assay [4] the test system is Bacteroides thetaiotaomicron VPI-5482. The assay is described as follows: MIC in MEGA medium. The format is cell-based. The following applies: Bacteroides thetaiotaomicron, VPI5482; anaerobic, 37°C, 24 h, up to 200 µM; read-out: MIC in MEGA medium, B. thetaiotaomicron. The protocol: as §1
Assay [5] deals with Collinsella aerofaciens ATCC 25986. Put plainly: MIC in MEGA medium. The following applies: Collinsella aerofaciens, ATCC25986; anaerobic, 37°C, 24 h, up to 200 µM. The format is cell-based. The protocol:
as §1

The subject of assay [6] is Bacteroides caccae ATCC 43185. Put plainly: MIC in MEGA medium. The format is cell-based. Conditions: Bacteroides caccae, ATCC43185; anaerobic, 37°C, 24 h, up to 200 µM; read-out: MIC in MEGA medium, B. caccae. The protocol: as §1
In assay [7] the test system is Bacteroides ovatus ATCC 8483. Put plainly: MIC in MEGA medium. The following applies: Bacteroides ovatus, ATCC8483; anaerobic, 37°C, 24 h, up to 200 µM; read-out: MIC in MEGA medium, B. ovatus. The format is cell-based. The protocol: as §1
In assay [8] the test system is Eubacterium rectale ATCC 33656. Put plainly: MIC in MEGA medium. The following applies: Agathobacter rectalis, ATCC33656; anaerobic, 37°C, 24 h, up to 200 µM; read-out: MIC in MEGA medium, E. rectale. The format is cell-based. The protocol: as §1
Assay [9] concerns Proteus mirabilis ATCC 29906. The assay is described as follows: MIC in MEGA medium. The assay is classed as cell-based. Conditions: Proteus mirabilis, ATCC29906; anaerobic, 37°C, 24 h, up to 200 µM; read-out: MIC in MEGA medium, P. mirabilis. The protocol: as §1

Three compounds from article PMC12977544, “Phenotypic high-throughput screening identifies modulators of gut microbial choline metabolism” (mBio, 2026) can be followed below.

Values after ≈ are worked out from the molar mass of the structure shown. Some results are limits rather than exact numbers.

One may read the EC50 as the concentration that produces a half-maximal response. As to `Cc1ccc(-c2cc(C(=O)NCCCN3CCc4ccccc4C3)c(C)[nH]2)cc1C` [Compound 5], in the assay on E. coli MS 200-1, the “Effect on growth of E. coli MS 200-1 in glycerol medium” value is “no impact on growth”. The EC50 in [1] was in the range of 12 to 33 µM.

Usually MIC stands for the least concentration at which growth counts as inhibited. In the case of `Cc1ccc(-c2cc(C(=O)NCCCCCN3CCCCCC3)c(C)[nH]2)cc1C` [Compound 45], the “Fold more potent than 6 across the panel of bacteria” value in [1] (compared with compound 6) was 2–10 fold. Further, the “Reduction of conversion of choline to TMA by bacteria in vitro” value in assay [1] (in vitro) is listed as greater than 80%. Further, the EC50 in [1] was in the range of 2 to 18 µM. In addition, the MIC in [2], in assay [3], in assay [4], in [5], in assay [6] and in [7] was greater than 200 µM in each case. In addition, the MIC in assay [8] and in [9] was greater than 200 µM in each case.

As for `Cc1ccc(-c2cc(C(=O)NCCCN3CCC(C)CC3)c(C)[nH]2)cc1C` [Compound 6], the “Inhibition of E. coli growth on choline” value with E. coli MS 200-1 (choline minimal medium, 7 h, 6: 125–500 µM, 42: 30–100 µM) is given as “dose-dependent”. For the same compound, the “Effect on growth of E. coli MS 200-1 in glycerol medium” value in the assay on E. coli MS 200-1 is listed as “not observed in glycerol”. Also, the MIC was 200 µM (≈ 73.5 µg/mL) in [2]; greater than 200 µM in assay [3]; greater than 200 µM in assay [4]; greater than 200 µM in assay [5]; greater than 200 µM in assay [6]; greater than 200 µM in assay [7]. The MIC in assay [8] is 200 µM (≈ 73.5 µg/mL); in [9], greater than 200 µM.
